Test results taken from ChEMBL document CHEMBL1201862, “PubChem BioAssay data set” (2004).
Activity calls are given as the source filed them. Rule as the data show it, for most assays here: actives have a measured EC50 and inactives only a lower limit.

Columns and labels:
[1] = molecular target: Luciferin 4-monooxygenase (Photinus pyralis, UniProt P08659); experiment: firefly luciferase enzyme inhibitors, dose response, biochemical, luminescence (AID 1891)
[2] = Luminescence Cell-Based Dose Confirmation HTS to Identify Inhibitors of Platelet Dense Granule Release. [Related pubchem assays: 1663 (Primary HTS), 1678 (Summary of Project)]; assay type: functional
[3] = microbe, parasite or virus in culture; assay type: functional; settings: Mycobacterium tuberculosis
[4] = molecular target: T1, Fatty acid synthase (Homo sapiens, UniProt P49327); experiment: FAS thioesterase domain inhibitors, dose response, biochemical, endpoint fluorescence intensity, uHTS hits (AID 624327); assay type: functional;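 also: fluorescence from hydrolysis of an O-methyl fluorescein acyl ester substrate by the enzyme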
[5] = molecular target: T1, Fatty acid synthase; experiment: FAS thioesterase domain inhibitors, dose response, biochemical, kinetic fluorescence intensity (AID 624326); assay type: functional;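 also: rate of fluorescence rise from hydrolysis of a fluorogenic O-methyl fluorescein ester substrate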
[6] = molecular target: T2, Replicative DNA helicase DnaB (Mycobacterium tuberculosis, UniProt P9WMR3); experiment: DnaB intein splicing inhibitors, dose response, biochemical, cell-free fluorescence (AID 449749); assay type: functional
T2 sequence (P9WMR3 whole entry): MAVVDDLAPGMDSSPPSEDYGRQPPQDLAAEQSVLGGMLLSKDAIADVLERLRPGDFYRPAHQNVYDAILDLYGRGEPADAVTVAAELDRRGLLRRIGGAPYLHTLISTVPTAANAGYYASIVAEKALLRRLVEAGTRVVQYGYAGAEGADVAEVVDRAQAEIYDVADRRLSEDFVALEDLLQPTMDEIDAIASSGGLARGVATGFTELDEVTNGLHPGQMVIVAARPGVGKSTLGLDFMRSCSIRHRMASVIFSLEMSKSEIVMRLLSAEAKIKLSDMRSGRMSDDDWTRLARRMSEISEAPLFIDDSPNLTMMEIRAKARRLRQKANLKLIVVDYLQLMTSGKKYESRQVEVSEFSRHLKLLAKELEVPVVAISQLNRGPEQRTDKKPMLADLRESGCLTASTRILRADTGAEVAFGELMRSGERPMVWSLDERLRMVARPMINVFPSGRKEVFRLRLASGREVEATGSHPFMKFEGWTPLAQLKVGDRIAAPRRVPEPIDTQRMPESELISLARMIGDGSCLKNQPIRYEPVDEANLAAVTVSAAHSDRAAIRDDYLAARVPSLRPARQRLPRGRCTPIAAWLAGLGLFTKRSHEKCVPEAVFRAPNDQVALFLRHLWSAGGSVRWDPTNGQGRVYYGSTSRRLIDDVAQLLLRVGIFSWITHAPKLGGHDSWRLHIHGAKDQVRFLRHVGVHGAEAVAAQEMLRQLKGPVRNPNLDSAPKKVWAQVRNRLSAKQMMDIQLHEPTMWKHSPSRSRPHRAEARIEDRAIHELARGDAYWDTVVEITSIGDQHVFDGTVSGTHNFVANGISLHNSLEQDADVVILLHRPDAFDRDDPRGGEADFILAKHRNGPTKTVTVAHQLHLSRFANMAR

[7] = molecular target: T3, Protein RecA (Mycobacterium tuberculosis, UniProt P9WHJ3); experiment: Fluorescence Cell-Free Homogeneous Dose Retest to Identify Inhibitors of RecA-Intein Splicing Activity. [Related pubchem assays (depositor defined):AID2097, AID2223, AID489010, AID492950]; assay type: functional
T3 sequence (P9WHJ3 whole entry): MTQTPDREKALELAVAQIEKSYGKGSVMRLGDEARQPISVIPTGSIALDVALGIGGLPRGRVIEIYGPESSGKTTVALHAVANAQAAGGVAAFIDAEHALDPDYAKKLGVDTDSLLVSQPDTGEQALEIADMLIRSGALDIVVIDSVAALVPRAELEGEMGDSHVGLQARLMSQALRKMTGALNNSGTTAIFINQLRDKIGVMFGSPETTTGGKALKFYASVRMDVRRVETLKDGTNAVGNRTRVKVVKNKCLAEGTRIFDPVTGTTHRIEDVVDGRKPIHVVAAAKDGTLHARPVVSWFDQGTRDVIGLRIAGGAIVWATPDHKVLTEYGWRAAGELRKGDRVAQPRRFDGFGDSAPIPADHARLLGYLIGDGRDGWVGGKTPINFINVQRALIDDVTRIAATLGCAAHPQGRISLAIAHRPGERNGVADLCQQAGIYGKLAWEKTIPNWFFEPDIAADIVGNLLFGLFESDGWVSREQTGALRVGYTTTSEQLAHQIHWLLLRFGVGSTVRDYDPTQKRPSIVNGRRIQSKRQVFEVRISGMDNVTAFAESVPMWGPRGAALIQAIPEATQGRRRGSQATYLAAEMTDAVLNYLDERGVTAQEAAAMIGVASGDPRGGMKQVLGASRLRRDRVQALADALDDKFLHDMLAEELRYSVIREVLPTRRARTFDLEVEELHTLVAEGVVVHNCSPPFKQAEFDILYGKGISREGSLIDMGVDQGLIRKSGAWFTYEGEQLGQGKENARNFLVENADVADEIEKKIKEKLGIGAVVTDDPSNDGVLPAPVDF

[8] = molecular target: Genome polyprotein (dengue virus type 2, UniProt P29990); experiment: Dengue-2 NS5 methyltransferase inhibitors, primary screen, biochemical, confirmation dose response (AID 588689); assay type: functional
[9] = Shn3 3'UTR reporter inhibitors, dose response, cell-based, Clone20 osteoblasts, firefly luciferase, cherry-picked (AID 624132); assay type: functional;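 also: firefly luciferase luminescence from reporter carrying the Shn3 3'UTR in osteoblasts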
[10] = HepG2 cell cytotoxicity, dose response, cytotoxicity control for Shn3 inhibitor project, CellTiter-Glo, cherry-picked (AID 624134); assay type: functional, cell-based
[11] = control 3'UTR Renilla luciferase suppression, dose response, counter-screen for Shn3 inhibitor project, cell-based, Clone20-Shn3RL, cherry-picked (AID 624133); assay type: functional
[12] = molecular target: T4, Calpain-2 catalytic subunit (Sus scrofa, UniProt P43367); experiment: pig calpain II inhibitor potency, dose response, biochemical, fluorogenic peptide substrate (AID 1420); assay type: functional
T4 sequence (P43367 whole entry): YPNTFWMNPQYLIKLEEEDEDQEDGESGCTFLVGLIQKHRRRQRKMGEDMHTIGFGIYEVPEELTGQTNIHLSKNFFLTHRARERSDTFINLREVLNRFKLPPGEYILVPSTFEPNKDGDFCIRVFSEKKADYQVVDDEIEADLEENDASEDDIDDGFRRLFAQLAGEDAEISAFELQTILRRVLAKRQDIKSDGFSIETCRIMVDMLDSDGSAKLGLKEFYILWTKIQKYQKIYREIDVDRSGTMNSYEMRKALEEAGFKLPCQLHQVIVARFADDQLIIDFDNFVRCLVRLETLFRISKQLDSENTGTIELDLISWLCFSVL

[13] = inhibitors of intracellular T. cruzi replication, confirmation, NIH3T3 host cells, beta-gal luminescence (AID 2044); assay type: functional, cell-based;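 also: intracellular parasites grown in NIH/3T3 mouse fibroblasts as host cells; luminescent beta-galactosidase reporter signal from transgenic T. cruzi replicating inside host cells; inhibitors lower the luminescence signal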
[14] = cytotoxicity toward NIH3T3 fibroblasts, dose response, counter-screen, cell-based, ATP luminescence, mouse fibroblasts (AID 2010); assay type: functional;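 also: cells exposed to compound for about 90 hours before reading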
[15] = system: Streptococcus sp. 'group A'; experiment: growth inhibition of control SK(-) GAS strain, dose response, counter-screen for streptokinase expression inhibitor project, luminescence, kanamycin, BacTiterGlo, confirmation (AID 1900); assay type: functional, organism-based
[16] = molecular target: T5, Streptokinase A (Streptococcus pyogenes serotype M1, UniProt P10520); experiment: S. pyogenes streptokinase expression inhibitors, potency, dose response, plasminogen activation absorbance, OD405 (AID 1914); assay type: functional, Streptococcus pyogenes M1 GAS;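 also: secreted streptokinase activity via plasminogen activation per viability signal from cell pellet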
T5 sequence (P10520 whole entry): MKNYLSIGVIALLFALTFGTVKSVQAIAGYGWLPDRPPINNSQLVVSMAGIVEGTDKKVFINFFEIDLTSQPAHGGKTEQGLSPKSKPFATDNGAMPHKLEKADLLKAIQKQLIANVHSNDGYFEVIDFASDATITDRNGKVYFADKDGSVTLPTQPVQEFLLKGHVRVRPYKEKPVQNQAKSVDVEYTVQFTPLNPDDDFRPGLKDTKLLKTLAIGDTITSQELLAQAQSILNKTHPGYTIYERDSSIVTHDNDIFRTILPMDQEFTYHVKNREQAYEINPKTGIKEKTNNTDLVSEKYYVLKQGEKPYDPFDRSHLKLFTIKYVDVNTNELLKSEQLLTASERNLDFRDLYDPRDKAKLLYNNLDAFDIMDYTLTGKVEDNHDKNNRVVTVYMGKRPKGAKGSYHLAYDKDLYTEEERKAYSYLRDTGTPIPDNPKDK

[17] = system: Streptococcus; experiment: Group A Streptococcus viability loss, dose response, counter-screen for streptokinase expression inhibitor project, luminescence, BacTiterGlo (AID 1915); assay type: functional, organism-based;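 also: potency for reduction of bacterial viability or growth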
[18] = NIH-3T3 fibroblast cytotoxicity, dose response, cytotoxicity control, cell-based, fluorescence, Alamar Blue, secondary assay (AID 2327); assay type: functional;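 also: NIH-3T3 mouse fibroblasts cultured with fluconazole at 8 µg/mL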
[19] = C. albicans growth with fluconazole, confirmation, fluorescence, retest (AID 2467); assay type: functional, cell-based
[20] = Luminescence Cell-Based Dose Confirmation HTS to Identify Activators of 5'UTR Stem-Loop Driven Alpha-Synuclein mRNA Translation in H4 Neuroglioblastoma Cells. [Related pubchem assays: 1829 (Project Summary), 1814 (Primary HTS)]; assay type: functional
[21] = Luminescence Cell-Based Dose Response HTS to Identify Activators of Luciferase Translation or Activity in H4 […] Cells. [Related pubchem assays: 1829 (Project Summary), 1814 (Primary HTS)]; assay type: functional
[22] = system: H4; experiment: Luminescence Cell-Based Dose Response HTS to Identify Activators of 5'UTR Stem-Loop Driven Prion Protein mRNA Translation in H4 Neuroglioblastoma Cells. [Related pubchem assays: 1829 (Project Summary), 1814 (Primary HTS)]; assay type: functional; settings: Homo sapiens
[23] = system: H9c2; experiment: cells; assay type: functional, cell-based; settings: Rattus norvegicus, H9c2, Myocardium;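 also: confirmatory concentration-response retest of ultra-high-throughput screening hits for modulation of myocardial damage; cell death induced by hydrogen peroxide oxidative stress; compound pretreatment for 60 min then peroxide exposure for 2 h; potency is for protecting the cells against peroxide damage rather than for killing them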
[24] = inhibitors of HIV Env-driven cell fusion, dose response, cherry-pick (AID 652057); assay type: functional, cell-based

Sequence of Luciferin 4-monooxygenase (P08659 whole entry): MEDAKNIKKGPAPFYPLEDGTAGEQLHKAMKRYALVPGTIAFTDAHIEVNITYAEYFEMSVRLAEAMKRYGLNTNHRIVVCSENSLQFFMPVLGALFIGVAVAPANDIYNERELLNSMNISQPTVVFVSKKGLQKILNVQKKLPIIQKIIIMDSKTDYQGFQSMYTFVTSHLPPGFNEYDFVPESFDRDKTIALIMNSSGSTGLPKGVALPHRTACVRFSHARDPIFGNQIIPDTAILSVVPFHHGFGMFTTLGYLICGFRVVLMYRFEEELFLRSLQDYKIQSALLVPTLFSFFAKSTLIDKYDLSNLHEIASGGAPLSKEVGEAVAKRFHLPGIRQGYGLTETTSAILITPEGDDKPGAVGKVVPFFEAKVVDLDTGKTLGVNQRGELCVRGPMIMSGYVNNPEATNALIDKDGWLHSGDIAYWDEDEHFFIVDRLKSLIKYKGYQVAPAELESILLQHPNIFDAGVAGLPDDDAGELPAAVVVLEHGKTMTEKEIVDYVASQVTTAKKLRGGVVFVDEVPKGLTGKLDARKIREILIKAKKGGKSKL
Sequence of Genome polyprotein (P29990 2492-3391 limits assumed): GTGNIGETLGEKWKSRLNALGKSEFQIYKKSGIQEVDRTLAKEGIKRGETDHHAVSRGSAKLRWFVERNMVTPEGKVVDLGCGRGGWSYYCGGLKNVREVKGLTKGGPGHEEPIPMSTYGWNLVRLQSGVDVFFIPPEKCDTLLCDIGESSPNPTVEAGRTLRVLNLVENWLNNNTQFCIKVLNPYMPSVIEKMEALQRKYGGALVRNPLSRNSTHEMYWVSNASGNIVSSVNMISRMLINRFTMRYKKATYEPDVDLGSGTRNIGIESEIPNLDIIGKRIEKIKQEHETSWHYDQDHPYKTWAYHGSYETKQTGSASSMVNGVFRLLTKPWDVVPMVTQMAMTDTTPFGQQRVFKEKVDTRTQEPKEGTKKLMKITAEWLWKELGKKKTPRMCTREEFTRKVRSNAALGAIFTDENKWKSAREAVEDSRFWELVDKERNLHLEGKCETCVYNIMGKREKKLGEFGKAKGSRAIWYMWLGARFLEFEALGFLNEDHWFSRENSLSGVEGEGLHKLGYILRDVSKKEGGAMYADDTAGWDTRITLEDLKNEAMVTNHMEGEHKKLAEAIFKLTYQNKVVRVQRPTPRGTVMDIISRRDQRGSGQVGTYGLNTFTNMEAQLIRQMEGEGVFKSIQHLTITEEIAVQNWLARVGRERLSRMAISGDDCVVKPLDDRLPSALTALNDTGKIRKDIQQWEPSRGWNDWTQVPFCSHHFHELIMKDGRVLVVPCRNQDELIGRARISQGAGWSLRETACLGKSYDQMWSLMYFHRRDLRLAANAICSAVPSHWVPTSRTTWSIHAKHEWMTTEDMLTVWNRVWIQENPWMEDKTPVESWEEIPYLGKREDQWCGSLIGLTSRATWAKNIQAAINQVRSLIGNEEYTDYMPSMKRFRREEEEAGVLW
T1 sequence (P49327 whole entry, the tested form may be a part): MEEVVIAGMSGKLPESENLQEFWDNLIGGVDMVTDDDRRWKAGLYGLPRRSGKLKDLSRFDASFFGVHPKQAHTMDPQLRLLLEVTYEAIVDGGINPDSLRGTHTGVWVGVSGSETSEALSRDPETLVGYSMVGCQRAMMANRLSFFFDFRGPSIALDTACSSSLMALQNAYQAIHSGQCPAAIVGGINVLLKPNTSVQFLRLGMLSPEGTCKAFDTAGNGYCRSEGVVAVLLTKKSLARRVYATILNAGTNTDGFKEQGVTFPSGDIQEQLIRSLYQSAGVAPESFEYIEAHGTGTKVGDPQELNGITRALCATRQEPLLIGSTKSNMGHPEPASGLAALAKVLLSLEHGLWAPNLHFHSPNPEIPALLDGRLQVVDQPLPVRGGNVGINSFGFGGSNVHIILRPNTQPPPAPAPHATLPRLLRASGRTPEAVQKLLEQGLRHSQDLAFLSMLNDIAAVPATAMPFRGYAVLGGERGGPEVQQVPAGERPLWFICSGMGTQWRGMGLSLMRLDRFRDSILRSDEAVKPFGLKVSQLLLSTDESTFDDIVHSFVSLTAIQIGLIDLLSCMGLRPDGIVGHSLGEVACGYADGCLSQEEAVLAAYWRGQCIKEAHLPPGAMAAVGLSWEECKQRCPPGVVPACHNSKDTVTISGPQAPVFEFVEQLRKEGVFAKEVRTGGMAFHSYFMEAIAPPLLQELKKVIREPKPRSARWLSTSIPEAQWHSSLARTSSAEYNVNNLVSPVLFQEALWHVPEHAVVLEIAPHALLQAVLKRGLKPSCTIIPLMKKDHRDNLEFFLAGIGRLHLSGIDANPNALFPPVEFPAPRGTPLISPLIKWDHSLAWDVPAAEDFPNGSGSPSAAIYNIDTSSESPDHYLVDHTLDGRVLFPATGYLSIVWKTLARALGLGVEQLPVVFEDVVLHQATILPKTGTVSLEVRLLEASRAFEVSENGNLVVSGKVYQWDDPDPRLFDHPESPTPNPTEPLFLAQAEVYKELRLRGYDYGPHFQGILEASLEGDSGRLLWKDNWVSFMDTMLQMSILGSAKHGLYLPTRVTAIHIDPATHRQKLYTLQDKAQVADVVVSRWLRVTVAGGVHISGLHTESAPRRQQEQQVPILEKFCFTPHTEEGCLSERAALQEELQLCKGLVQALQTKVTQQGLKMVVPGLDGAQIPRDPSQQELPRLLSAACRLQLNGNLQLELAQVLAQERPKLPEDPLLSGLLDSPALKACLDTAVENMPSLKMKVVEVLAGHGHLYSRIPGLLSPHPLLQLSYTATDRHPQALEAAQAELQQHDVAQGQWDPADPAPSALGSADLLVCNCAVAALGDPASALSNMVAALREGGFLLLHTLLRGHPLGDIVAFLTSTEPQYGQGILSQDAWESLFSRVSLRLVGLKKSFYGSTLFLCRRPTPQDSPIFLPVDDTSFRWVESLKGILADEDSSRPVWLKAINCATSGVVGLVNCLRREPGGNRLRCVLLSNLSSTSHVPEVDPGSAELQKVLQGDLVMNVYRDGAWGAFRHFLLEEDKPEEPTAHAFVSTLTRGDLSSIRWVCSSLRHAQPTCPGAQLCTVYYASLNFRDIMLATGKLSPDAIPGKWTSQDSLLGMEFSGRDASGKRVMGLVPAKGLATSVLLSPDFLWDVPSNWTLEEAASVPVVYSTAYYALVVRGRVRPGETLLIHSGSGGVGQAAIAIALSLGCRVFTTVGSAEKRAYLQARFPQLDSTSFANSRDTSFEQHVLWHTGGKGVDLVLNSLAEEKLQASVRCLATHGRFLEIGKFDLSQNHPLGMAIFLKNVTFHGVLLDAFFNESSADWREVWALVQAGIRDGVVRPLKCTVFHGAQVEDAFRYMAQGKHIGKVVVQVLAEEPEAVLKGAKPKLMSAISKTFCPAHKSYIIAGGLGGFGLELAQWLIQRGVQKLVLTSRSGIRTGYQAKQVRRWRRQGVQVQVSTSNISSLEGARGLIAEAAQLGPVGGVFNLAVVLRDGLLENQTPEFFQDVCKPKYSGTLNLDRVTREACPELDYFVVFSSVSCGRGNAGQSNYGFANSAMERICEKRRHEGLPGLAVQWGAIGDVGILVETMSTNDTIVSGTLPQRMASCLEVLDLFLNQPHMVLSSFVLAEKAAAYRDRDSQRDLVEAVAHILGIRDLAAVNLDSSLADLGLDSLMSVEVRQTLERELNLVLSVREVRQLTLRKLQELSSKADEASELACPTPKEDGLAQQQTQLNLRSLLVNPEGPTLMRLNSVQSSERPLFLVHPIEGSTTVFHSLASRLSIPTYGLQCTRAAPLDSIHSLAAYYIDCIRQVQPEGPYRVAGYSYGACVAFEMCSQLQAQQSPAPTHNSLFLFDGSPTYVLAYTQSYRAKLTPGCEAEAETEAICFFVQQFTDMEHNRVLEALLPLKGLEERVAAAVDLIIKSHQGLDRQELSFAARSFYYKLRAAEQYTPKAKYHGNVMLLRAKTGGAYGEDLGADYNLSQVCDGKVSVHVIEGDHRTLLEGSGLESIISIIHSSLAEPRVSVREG

## O=C(NC1CCCCC1)C12CC3CC(CC(Cl)(C3)C1)C2
[1]
  EC50: > 112 µM (not active)
[2]
  EC50: > 112 µM (not active)

## CCCCn1c(-c2ccc(C(C)(C)C)cc2)nc2cc3nc(O)c(C(C)C)nc3cc21
[3]
  CC50: 32.7 µM (active)

## Cc1nc2ccc([N+](=O)[O-])cc2c(=O)n1Cc1ccc(F)cc1
[4]
  IC50: 3.27 µM (active)
[5]
  IC50: 4.49 µM (active)

## O=C(O)/C=C/C(=O)Nc1ccc(C2(c3ccc(NC(=O)/C=C/C(=O)O)cc3)c3ccccc3-c3ccccc32)cc1
[6]
  AC50: 13.3 µM (active)
[7]
  EC50: 2.88 µM (active)
[8]
  IC50: 18.1 µM (active)

## O[C@@H]1CN(Cc2ccc(-n3cccn3)cc2)CC[C@H]1N1CCN(c2ccccc2F)CC1
[9]
  AC50: 2.13 µM (active)
[10]
  AC50: 68 µM (active)
[11]
  AC50: 2.39 µM (active)

## Cc1ccc(SCC(=O)OC(C)C(=O)NCc2ccccc2)cc1 (stereo not given)
[1]
  EC50: > 112 µM (not active)
[2]
  EC50: > 112 µM (not active)

## O=C(NCc1ccccc1Cl)C1CCCN(c2nc3ccsc3c(=O)s2)C1 (stereo not given)
[12]
  IC50: 15.9 µM (not active)

## Cc1ccc(-c2nc3c(c(=O)[nH]c(=O)n3CC(C)C)n2CC(C)C)cc1[N+](=O)[O-]
[13]
  EC50: 1.41 µM (active)
[12]
  IC50: 16.1 µM (not active)
[14]
  EC50: > 30 µM (not active)

## O=C(CSc1nc(Nc2ccccc2)nc(N2CCOCC2)n1)Nc1cc(Cl)ccc1O
[15]
  EC50: 6.55 µM (active)
[16]
  EC50: 30.7 µM (active)
[3]
  CC50: 17 µM (active)
[17]
  EC50: 18.5 µM (active)

## CCN(CC(O)Cn1c2ccccc2c2ccccc21)S(=O)(=O)c1ccc(F)cc1 (stereo not given)
[12]
  IC50: 6.55 µM (not active)

## CC(C)(C)OC(=O)Nc1ncnc2c1ncn2C1OC(CO)C2OC(C)(C)OC21 (stereo not given)
[1]
  EC50: > 112 µM (not active)
[2]
  EC50: > 112 µM (not active)

## COC(=O)c1sc(N2C(=O)C(O)=C(C(=O)c3ccc(C)o3)C2c2ccc([N+](=O)[O-])cc2)nc1C (stereo not given)
[15]
  EC50: 4.55 µM (active)
[16]
  EC50: > 150 µM (not active)
[17]
  EC50: 6.86 µM (active)
[8]
  IC50: 38.5 µM (active)

## CC(=O)c1cnc2cc(-c3cccc(Br)c3)nn2c1C
[18]
  EC50: > 150 µM (inconclusive)
[19]
  EC50: > 38 µM (not active)

## Cn1c(NN)nc2sc3c(c2c1=O)CCC3
[18]
  EC50: > 150 µM (inactive)

## COc1ccc(C(=O)/C=C/Sc2nc3ccccc3o2)cc1
[20]
  EC50: 17.4 µM (active)
[21]
  EC50: 96.7 µM (active)
[22]
  EC50: 14.5 µM (active)
[3]
  CC50: 32.4 µM (active)
[6]
  AC50: > 380 µM (inactive)
[7]
  EC50: 54.4 µM (active)

## NC1=NC2(CCC(c3ccccc3)CC2)n2c(nc3ccccc32)N1 (stereo not given)
[3]
  CC50: 29.3 µM (active)

## CCN(C(=O)CSc1nnc(C)n1-c1ccccc1)C1CCS(=O)(=O)C1 (stereo not given)
[1]
  EC50: > 112 µM (not active)
[2]
  EC50: > 112 µM (not active)

## CCOC(=O)CNS(=O)(=O)c1cc(-c2nnc(O)c3ccccc23)ccc1C
[1]
  EC50: > 112 µM (not active)
[2]
  EC50: 7.49 µM (active)
[23]
  IC50: > 79 µM (inactive)

## O=C(COc1ccc([N+](=O)[O-])cc1)NNC(=S)NC(=O)c1ccc(Br)cc1
[18]
  EC50: > 150 µM (inactive)
[19]
  EC50: 3.09 µM (active)

## C=C(C)[C@@H]1C2=CC(C(=O)OC)=C(C[C@H](C(=C)C)[C@H]3O[C@H]3C3=C[C@H]1OC3=O)O2
[9]
  AC50: 8.16 µM (active)
[10]
  AC50: 13.3 µM (active)
[11]
  AC50: 5.23 µM (active)

## CCCCNC(=S)N/N=C/c1ccccc1F
[12]
  IC50: 5.17 µM (active)

## COc1ccc([Si](C)(C)[C@H]2[C@H](CCO)O[C@@]3(C(=O)N(Cc4cccc(N5CCOC5=O)c4)c4ccccc43)[C@@H]2C)cc1
[24]
  AC50: 17.3 µM (active)
